Laboratory results published in ChEMBL document CHEMBL1201862, “PubChem BioAssay data set” (2004).
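A five-concentration, 48-hour dose response in 96-well plates underlies each endpoint, interpolated linearly between surrounding concentrations. The concentration for 50% growth inhibition is given as GI50.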 Calls of active or inactive are those of the source. Rule as the data show it: active = GI50 up to about 1.1 µM and inactive = higher.

Columns and labels:
Experiment in all cases: DTP human tumour cell line panel, 48 h
786-0 = tested on: 786-0
A498 = tested on: A498
A549 = tested on: A549
ACHN = tested on: ACHN
BT-549 = tested on: BT-549
CCRF-CEM = tested on: CCRF-CEM
COLO 205 = tested on: COLO 205
DU-145 = tested on: DU-145
EKVX = tested on: EKVX
HCC 2998 = tested on: HCC 2998
HCT-116 = tested on: HCT-116
HCT-15 = tested on: HCT-15
HL-60 = tested on: HL-60
HOP-62 = tested on: HOP-62
HOP-92 = tested on: HOP-92
HT-29 = tested on: HT-29
Hs-578T = tested on: Hs-578T
IGROV-1 = tested on: IGROV-1
K562 = tested on: K562
KM12 = tested on: KM12
LOX IMVI = tested on: LOX IMVI
M14 = tested on: M14
MCF7 = tested on: MCF7
MDA-MB-231 = tested on: MDA-MB-231
MDA-MB-435 = tested on: MDA-MB-435
MDA-N = tested on: MDA-N
MOLT-4 = tested on: MOLT-4
Malme-3M = tested on: Malme-3M
NCI-H226 = tested on: NCI-H226
NCI-H23 = tested on: NCI-H23
NCI-H460 = tested on: NCI-H460
NCI-H522 = tested on: NCI-H522
NCI/ADR-RES = tested on: NCI/ADR-RES
OVCAR-3 = tested on: OVCAR-3
OVCAR-4 = tested on: OVCAR-4
OVCAR-5 = tested on: OVCAR-5
OVCAR-8 = tested on: OVCAR-8
RPMI-8226 = tested on: RPMI-8226
RXF 393 = tested on: RXF 393
SF-268 = tested on: SF-268
SF-295 = tested on: SF-295
SF-539 = tested on: SF-539
SK-MEL-28 = tested on: SK-MEL-28
SK-MEL-2 = tested on: SK-MEL-2
SK-MEL-5 = tested on: SK-MEL-5
SK-OV-3 = tested on: SK-OV-3
SN12C = tested on: SN12C
SNB-19 = tested on: SNB-19
SNB-75 = tested on: SNB-75
SR = tested on: SR
SW-620 = tested on: SW-620
T47D = tested on: T47D
TK-10 = tested on: TK-10
U-251 = tested on: U-251
UACC-257 = tested on: UACC-257
UACC-62 = tested on: UACC-62
UO-31 = tested on: UO-31
CAKI-1 = tested on: CAKI-1
PC-3 = tested on: PC-3

Cc1ccc2c(c1)C(=O)/C(=C1/CCc3ccc(C)cc31)C2
GI50 (786-0): 46 µM (inactive)
GI50 (A498): > 100 µM (inactive)
GI50 (A549): > 100 µM (inactive)
GI50 (ACHN): > 100 µM (inactive)
GI50 (BT-549): > 100 µM (inactive)
GI50 (CCRF-CEM): 86.5 µM (inactive)
GI50 (COLO 205): 57.9 µM (inactive)
GI50 (DU-145): > 100 µM (inactive)
GI50 (EKVX): > 100 µM (inactive)
GI50 (HCC 2998): > 100 µM (inactive)
GI50 (HCT-116): 59 µM (inactive)
GI50 (HCT-15): > 100 µM
GI50 (HL-60): > 100 µM (inactive)
GI50 (HOP-62): > 100 µM (inactive)
GI50 (HOP-92): > 100 µM (inactive)
GI50 (HT-29): > 100 µM (inactive)
GI50 (Hs-578T): > 100 µM (inactive)
GI50 (IGROV-1): > 100 µM (inactive)
GI50 (K562): 76 µM (inactive)
GI50 (KM12): > 100 µM (inactive)
GI50 (LOX IMVI): > 100 µM (inactive)
GI50 (M14): > 100 µM (inactive)
GI50 (MCF7): > 100 µM (inactive)
GI50 (MDA-MB-231): 27.8 µM (inactive)
GI50 (MDA-MB-435): > 100 µM (inactive)
GI50 (MDA-N): > 100 µM (inactive)
GI50 (MOLT-4): > 100 µM (inactive)
GI50 (Malme-3M): > 100 µM (inactive)
GI50 (NCI-H226): > 100 µM (inactive)
GI50 (NCI-H23): > 100 µM (inactive)
GI50 (NCI-H460): > 100 µM (inactive)
GI50 (NCI-H522): 32.4 µM (inactive)
GI50 (NCI/ADR-RES): > 100 µM (inactive)
GI50 (OVCAR-3): > 100 µM (inactive)
GI50 (OVCAR-4): 30.4 µM (inactive)
GI50 (OVCAR-5): > 100 µM (inactive)
GI50 (OVCAR-8): 48.6 µM (inactive)
GI50 (RPMI-8226): > 100 µM (inactive)
GI50 (RXF 393): > 100 µM (inactive)
GI50 (SF-268): > 100 µM (inactive)
GI50 (SF-295): > 100 µM (inactive)
GI50 (SF-539): 54.7 µM (inactive)
GI50 (SK-MEL-28): > 100 µM (inactive)
GI50 (SK-MEL-2): > 100 µM (inactive)
GI50 (SK-MEL-5): > 100 µM (inactive)
GI50 (SK-OV-3): > 100 µM (inactive)
GI50 (SN12C): > 100 µM (inactive)
GI50 (SNB-19): 87.5 µM (inactive)
GI50 (SNB-75): 13.9 µM (inactive)
GI50 (SR): 35.6 µM (inactive)
GI50 (SW-620): > 100 µM (inactive)
GI50 (T47D): 14.7 µM (inactive)
GI50 (TK-10): > 100 µM (inactive)
GI50 (U-251): > 100 µM (inactive)
GI50 (UACC-257): > 100 µM (inactive)
GI50 (UACC-62): > 100 µM (inactive)
GI50 (UO-31): > 100 µM (inactive)

Cc1ccc(NC(=O)/C=C/c2ccccc2)c(C)c1
GI50 (786-0): 74.5 µM (inactive)
GI50 (A498): > 100 µM (inactive)
GI50 (A549): > 100 µM (inactive)
GI50 (ACHN): 39.6 µM (inactive)
GI50 (BT-549): > 100 µM (inactive)
GI50 (CAKI-1): > 100 µM (inactive)
GI50 (CCRF-CEM): > 100 µM (inactive)
GI50 (COLO 205): > 100 µM (inactive)
GI50 (DU-145): > 100 µM (inactive)
GI50 (EKVX): 26.6 µM (inactive)
GI50 (HCC 2998): > 100 µM (inactive)
GI50 (HCT-116): > 100 µM (inactive)
GI50 (HCT-15): > 100 µM
GI50 (HL-60): > 100 µM (inactive)
GI50 (HOP-62): 32.7 µM (inactive)
GI50 (HT-29): > 100 µM (inactive)
GI50 (Hs-578T): 21.7 µM (inactive)
GI50 (K562): > 100 µM (inactive)
GI50 (KM12): > 100 µM (inactive)
GI50 (LOX IMVI): > 100 µM (inactive)
GI50 (M14): > 100 µM (inactive)
GI50 (MCF7): > 100 µM (inactive)
GI50 (MDA-MB-231): 52.1 µM (inactive)
GI50 (MDA-MB-435): > 100 µM (inactive)
GI50 (MDA-N): > 100 µM (inactive)
GI50 (MOLT-4): > 100 µM (inactive)
GI50 (Malme-3M): 86.9 µM (inactive)
GI50 (NCI-H226): 13.9 µM (inactive)
GI50 (NCI-H23): > 100 µM (inactive)
GI50 (NCI-H460): > 100 µM (inactive)
GI50 (NCI-H522): 30 µM (inactive)
GI50 (OVCAR-3): > 100 µM (inactive)
GI50 (OVCAR-4): > 100 µM (inactive)
GI50 (OVCAR-5): > 100 µM (inactive)
GI50 (OVCAR-8): 37.3 µM (inactive)
GI50 (PC-3): > 100 µM (inactive)
GI50 (RPMI-8226): > 100 µM (inactive)
GI50 (SF-268): 52 µM (inactive)
GI50 (SF-539): > 100 µM (inactive)
GI50 (SK-MEL-28): > 100 µM (inactive)
GI50 (SK-MEL-2): > 100 µM (inactive)
GI50 (SK-MEL-5): > 100 µM (inactive)
GI50 (SK-OV-3): 43.2 µM (inactive)
GI50 (SN12C): 94.8 µM (inactive)
GI50 (SNB-19): > 100 µM (inactive)
GI50 (SNB-75): 24.9 µM (inactive)
GI50 (SR): > 100 µM (inactive)
GI50 (SW-620): > 100 µM (inactive)
GI50 (T47D): > 100 µM (inactive)
GI50 (TK-10): > 100 µM (inactive)
GI50 (U-251): 76 µM (inactive)
GI50 (UACC-257): > 100 µM (inactive)
GI50 (UACC-62): > 100 µM (inactive)

O=c1ccn(C2OC(CO)C(P(=O)(O)O)C2O)c(=O)[nH]1 (stereo not given)
GI50 (786-0): > 100 µM (inactive)
GI50 (A498): > 100 µM (inactive)
GI50 (A549): > 100 µM (inactive)
GI50 (ACHN): > 100 µM (inactive)
GI50 (BT-549): > 100 µM (inactive)
GI50 (CAKI-1): > 100 µM (inactive)
GI50 (CCRF-CEM): > 100 µM (inactive)
GI50 (DU-145): > 100 µM (inactive)
GI50 (EKVX): > 100 µM (inactive)
GI50 (HCC 2998): > 100 µM (inactive)
GI50 (HCT-116): > 100 µM (inactive)
GI50 (HCT-15): > 100 µM
GI50 (HL-60): > 100 µM (inactive)
GI50 (HOP-62): > 100 µM (inactive)
GI50 (HOP-92): > 100 µM (inactive)
GI50 (HT-29): > 100 µM (inactive)
GI50 (Hs-578T): > 100 µM (inactive)
GI50 (IGROV-1): > 100 µM (inactive)
GI50 (K562): > 100 µM (inactive)
GI50 (KM12): > 100 µM (inactive)
GI50 (LOX IMVI): > 100 µM (inactive)
GI50 (M14): > 100 µM (inactive)
GI50 (MCF7): > 100 µM (inactive)
GI50 (MDA-MB-231): > 100 µM (inactive)
GI50 (MDA-N): > 100 µM (inactive)
GI50 (MOLT-4): > 100 µM (inactive)
GI50 (Malme-3M): > 100 µM (inactive)
GI50 (NCI-H226): > 100 µM (inactive)
GI50 (NCI-H23): > 100 µM (inactive)
GI50 (NCI-H460): > 100 µM (inactive)
GI50 (NCI-H522): > 100 µM (inactive)
GI50 (OVCAR-3): > 100 µM (inactive)
GI50 (OVCAR-4): > 100 µM (inactive)
GI50 (OVCAR-5): > 100 µM (inactive)
GI50 (OVCAR-8): > 100 µM (inactive)
GI50 (PC-3): > 100 µM (inactive)
GI50 (RPMI-8226): > 100 µM (inactive)
GI50 (RXF 393): > 100 µM (inactive)
GI50 (SF-268): > 100 µM (inactive)
GI50 (SF-295): > 100 µM (inactive)
GI50 (SF-539): > 100 µM (inactive)
GI50 (SK-MEL-28): > 100 µM (inactive)
GI50 (SK-MEL-2): > 100 µM (inactive)
GI50 (SK-MEL-5): > 100 µM (inactive)
GI50 (SN12C): > 100 µM (inactive)
GI50 (SNB-19): > 100 µM (inactive)
GI50 (SNB-75): > 100 µM (inactive)
GI50 (SR): > 100 µM (inactive)
GI50 (SW-620): > 100 µM (inactive)
GI50 (T47D): > 100 µM (inactive)
GI50 (TK-10): > 100 µM (inactive)
GI50 (U-251): > 100 µM (inactive)
GI50 (UACC-257): > 100 µM (inactive)
GI50 (UACC-62): > 100 µM (inactive)
GI50 (UO-31): > 100 µM (inactive)
